Data on four compounds can be found in patent US20250360177A1, “FERMENTATION PRODUCT FOR THE TREATMENT OF INFLAMMATORY DISEASES” (ALFASIGMA S.P.A., priority 2022, published 2025).

The subject of one assay is IL-10. In words: IL-10 ELISA in LPS-stimulated RAW264.7 macrophages. Conditions: LPS 24 hours. The class given is cell-based. The procedure:
Each solution was centrifuged for 20 min at 2500 rpm, the insoluble residues discarded and the supernatant filtered on 0.22-μm PES filters. […] The cells were divided into 5 groups and each group was treated for 2 hours with […] of each of the Solutions obtained from the plant extracts (Sol. Ex1-Ex5). […] At the end of incubation, the supernatants were collected and analyzed by ELISA assay (Invitrogen kit) to detect the amount of IL-10.
(In general: In an ELISA, binding on a coated surface is turned into a signal by an enzyme label.)

Assay [1] has as its system TNBS-induced ulcerative colitis mouse model. In words: TNBS-induced ulcerative colitis in mice, plant extract solutions. Type of assay: in vivo, C57BL/6 mice. The note with it: TNBS 2 mg/mouse i.r.; 100 mg/kg gavage; day 3. The procedure:
Ulcerative colitis was induced in a mouse model by administration of 2,4,6-trinitrobenzenesulfonic acid (TNBS) (Yang et al., Scientific Reports, 2016 6: 29716). Male C57BL/6 mice aged 6-8 weeks were divided into groups of 8 mice each. Solutions obtained from the plant extracts (Sol. […] Ex-1 (Scutellaria baicalensis Georgi)/600μL/mouse per gavage • Group E: TNBS 2 mg/mouse in 100 μL i.r.+Sol. Ex-2 (Phaseolus radiatus)/[…]/mouse per gavage • Group F: TNBS 2 mg/mouse in 100 μL i.r.+Sol. Ex-3 (Curcuma longa)/600 μL/mouse per gavage • Group G: TNBS 2 mg/mouse in 100 μL i.r.+Sol. Ex-5 (Broccoli sprouts)/600 μL/mouse per gavage. Mice were sacrificed 6 h after the last administration by cervical dislocation.

The test system of the next assay is IL-1beta mRNA. The assay can be described thus: IL-1beta mRNA transcription in LPS-stimulated RAW264.7 macrophages (Real-Time PCR). Type of assay: cell-based. The note with it: 0.1 mM, LPS 24 hours. The procedure:
The anti-inflammatory activity of the fermentation product in lyophilic form of L. brevis DSM 33682 obtained in the presence of Phaseolus radiatus sprout extract (Lio-Prob1) according to Example 5, and the product obtained without Phaseolus radiatus sprout extract (Lio-Prob2) according to Example 6, were analyzed by means of determination of the amount of IL-1beta mRNA.
3×10^5 Cells/well of RAW264.7 macrophages (ATCC) were seeded on a 24-well plate.
Ten μl of lipopolysaccharide (LPS) from Sigma-Aldrich n.2630 (10 μg/mL) was added to each well and incubated at 37° C. in a 5% CO2 incubator for 24 hours.
At the end of incubation, macrophage RNA was extracted and analysed by Real-Time PCR to detect the gene transcription level of the proinflammatory cytokine IL-1beta, calculated as the mean value for the treated groups compared with macrophages treated with LPS alone. In particular, total RNA was isolated from each sample using the mini RNeasy kit (QiaGen GmbH, Hilden, Germany), and 1ug of total RNA was reverse transcribed by IScript™ cDNA Synthesis Kit (BioRad, Hercules, CA, USA). Real-time PCR was carried out by a BioRad CFX96 Touch™ Real-Time PCR Detection System using SsoAdvanced Universal SYBR Green super Mix (BioRad). The expression level of each mRNA was assessed using the ΔΔCT method, and Gapdh was used as housekeeping gene for normalization. The following primers were used.
Background: In qPCR the cycle at which signal appears reflects the starting amount.

Assay [2] deals with TNBS-induced ulcerative colitis mouse model. The assay can be described thus: TNBS-induced ulcerative colitis in mice, DAI score and colon length (Example 6). Type of assay: in vivo, C57BL/6 mice. The note with it: TNBS 2 mg/mouse i.r.; 100 mg/kg per gavage. The procedure:
The efficacy of fermentation products of L. brevis DSM 33682 obtained in the presence of Phaseolus radiatus sprout extract (Lio-Prob1) or absence of the extract (Lio-Prob2) was determined by measurement of DAI score and colonic length. Male C57BL/6 mice (Envigo) aged 6-8 weeks (8 mice/group), ulcerative colitis was induced with 2,4,6-trinitrobenzenesulfonic acid (TNBS) (Yang et al., Scientific Reports, 2016 6:29716). […] Mice were sacrificed by cervical dislocation 6 h after the last administration. The disease activity index, expressed by DAI score, of C57BL/6 mice was measured according to the method reported by Yang et al., Scientific Reports, 2016 6:29716.

Assay [3] concerns TNF-α, IL-1β and IL-10 gene expression. The assay can be described thus: Relative quantitative real-time PCR of colonic cells of TNBS-induced colitis mice. The class given is in vivo, C57BL/6 mice. Conditions: Lio-Prob1 12 mg/kg or mesalazine 100 mg/kg orally 4 days. The procedure:
RNA of colonic cells of C57BL/6 male mice treated according to Example 8 was isolated with Trizol (Life-technologies). […] BIO 65053). Real-time PCR was performed using SYBR green Master Mix (#1725150, Biorad). GAPDH was used as internal control. The relative transcription mRNA level was calculated.

In assay [4] the test system is TNBS-induced colitis mice. In words: TNBS-induced colitis in mice, comparison to VSL #3 and E. coli Nissle (Example 12). The note with it: TNBS 2 mg/mouse ir; 100 mg per kg mouse os, 4 days. Type of assay: in vivo, C57BL/6 mice.
Method: C57BL/6 Male mice aged 7-8 weeks (ENVIGO, Italy) were housed under standard laboratory conditions: light/dark cycles (12/12 hr), ambient temperature 20±2° C., 55% relative air humidity and food (Mucedola RF18) and water ad libitum.
Colitis was induced in the mice as previously described, using TNBS (Yang et al., Scientific Reports, 2016 6:29716).
After 3 h of colitis induction, each group of mice was orally administered with the corresponding treatment for 4 days. During the 4-day trial, the mice were routinely inspected for their body mass, and diarrhea. All mice were sacrificed by cervical dislocation for sample collection at the end of day 4.

Take `CCCC(=O)O` [Butyrate]: in the assay with IL-10 (0.62 mM), the “% IL-10 (vs LPS) ± SD” value turned out to be 268 ± 71%.
As for `CCC(=O)O` [Propionate], the “% IL-10 (vs LPS) ± SD” value in the assay on IL-10 (10 mM) was 135 ± 2%.
Regarding `CC(=O)O` [Acetate], in the assay with IL-10 (5 mM), the “% IL-10 (vs LPS) ± SD” value came out at 199 ± 14%.
Regarding `Nc1ccc(O)c(C(=O)O)c1` [Mesalazine], the “% IL-10 (vs LPS) ± SD” value in the assay on IL-10 (0.1 mM) amounted to 216 ± 55%; in the assay on IL-10 (0.2 mM), 269 ± 18%. The “colon length (mm) ± SE” value in assay [1] worked out at 68 ± 1.9 mm; in assay [2], 66.6 ± 0.5 mm. In the assay on IL-1beta mRNA, the “mRNA IL-1beta transcription inhibition compared to LPS treatment” value was 59%. Further, the “DAI score ± SE” value in assay [2] worked out at 1.1 ± 0.5. Also, in assay [3] (colon of TNBS-induced acute colitis mice), the “expression levels of pro-inflammatory genes, including TNF-α and IL-1β (in words)” value was “reduced the expression levels of pro-inflammatory genes”. The “expression of IL-10 (in words)” value in assay [3] (colon of TNBS-induced colitis mice) was “increased”. Moreover, the “BWL body weight loss % max” value in assay [4] is given as 4%.
